Reference: ChEMBL document CHEMBL1201862, “PubChem BioAssay data set” (2004)
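A five-concentration, 48-hour dose response in 96-well plates underlies each endpoint, interpolated linearly between surrounding concentrations. Here, GI50 denotes the concentration required for 50% inhibition of growth.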 The source made the active and inactive calls. Cut-off read from the data, not from the text of the source: active = GI50 up to about 1.1 µM and inactive = higher.

How the values were obtained:
Experiment in all cases: DTP human tumour cell line panel, 48 h
HOP-18 = tested on: HOP-18
DLD-1 = tested on: DLD-1
LXFL 529 = tested on: LXFL 529
DMS-273 = tested on: DMS-273
BT-549 = tested on: BT-549
XF498 = tested on: XF498
SNB-78 = tested on: SNB-78
DMS-114 = tested on: DMS-114
RXF 631 = tested on: RXF 631

N#Cc1c(-c2ccco2)cc(-c2ccc(NCc3nc4ccccc4[nH]3)cc2)nc1N
GI50 (HOP-18): 24.4 µM (inactive)
GI50 (DLD-1): 28.8 µM (inactive)
GI50 (LXFL 529): 17.9 µM (inactive)
GI50 (DMS-273): 18 µM (inactive)

O=C1C=C(c2ccccc2)O/C1=C/C(=O)c1ccc(Cl)cc1
GI50 (BT-549): 16.2 µM (inactive)

C=C1CCC(O)C/C1=C/C=C1\CCCC2(C)C1CCC2C(C)CCCC(C)C (stereo not drawn)
GI50 (BT-549): 19.5 µM (inactive)

CCCNC(=O)CCC(C)[C@H]1CCC2C3C(C[C@H](OC(C)=O)[C@@]21C)[C@@]1(C)CCC2(C[C@H]1C[C@H]3OC(C)=O)OOC1(CCCCC1)OO2 (stereo partly drawn)
GI50 (BT-549): 2.55 µM (inactive)

O=C1CC(C(O)(C(F)(F)F)C(F)(F)Cl)CCC1C(O)(C(F)(F)F)C(F)(F)Cl (stereo not drawn)
GI50 (BT-549): > 10 µM (inactive)

CC1(C)CC2=C(SC3C=CC=CC3N2)C(=O)C1C(=O)C(N)=O (stereo not drawn)
GI50 (BT-549): > 100 µM (inactive)

COC(=O)c1nc(C(=O)OC)c2c([nH]c3ccccc32)c1C(=O)OC
GI50 (XF498): 35.2 µM (inactive)
GI50 (SNB-78): > 100 µM (inactive)
GI50 (HOP-18): < 0.01 µM (active)
GI50 (DLD-1): 65.6 µM (inactive)
GI50 (DMS-114): 49.3 µM (inactive)
GI50 (LXFL 529): 74.5 µM (inactive)
GI50 (DMS-273): 60 µM (inactive)

Cc1ccc(-n2cc(-c3ccc(Cl)cc3)c(C#N)c2N)cc1
GI50 (BT-549): 18.2 µM (inactive)

COC(=O)/C(=N\Nc1nc(S)nn1N)C(C#N)c1ccccc1 (stereo not drawn)
GI50 (SNB-78): > 100 µM (inactive)
GI50 (HOP-18): > 100 µM (inactive)
GI50 (DLD-1): > 100 µM (inactive)
GI50 (LXFL 529): > 100 µM (inactive)

COc1cnc2cc(C(=O)O)c3c([N+](=O)[O-])cccc3c2c1
GI50 (BT-549): > 100 µM (inactive)

O=C1C2=C(c3ccccc31)C(c1ccc(Cl)cc1)N1C(=O)CCSC1=N2 (stereo not drawn)
GI50 (RXF 631): > 100 µM (inactive)
GI50 (XF498): 41.3 µM (inactive)
GI50 (DLD-1): > 100 µM (inactive)
GI50 (DMS-114): 67.6 µM (inactive)
GI50 (LXFL 529): 53.2 µM (inactive)
GI50 (DMS-273): > 100 µM (inactive)

COC(=O)[C@@]1(C)C(=O)CC[C@@H]1C=O
GI50 (XF498): > 100 µM (inactive)
GI50 (SNB-78): > 100 µM (inactive)
GI50 (DLD-1): > 100 µM (inactive)
GI50 (DMS-114): > 100 µM (inactive)
GI50 (LXFL 529): > 100 µM (inactive)

CC(C)(C)OC(=O)N1C/C=C\C(=O)C2(OCCO2)c2ccccc21
GI50 (BT-549): 22.5 µM (inactive)

Cc1ccc(/N=N/c2cc(=O)[nH]c(=O)[nH]2)cc1C
GI50 (BT-549): 13.7 µM (inactive)

COc1ccccc1OCC(=N/NC(=O)c1ccncc1)/N=C/c1ccncc1
GI50 (BT-549): > 100 µM (inactive)

CC(C)[Si](OC1=CCC[C@H]2NC(=O)[C@@H](Cc3ccc([N+](=O)[O-])cc3)[C@@]12C)(C(C)C)C(C)C
GI50 (BT-549): 3.76 µM (inactive)

O=c1[nH]c(=O)n(C2OC(CO)C(O)C2O)c2ccsc12 (stereo not drawn)
GI50 (BT-549): > 100 µM (inactive)

CCOC(=O)/C(I)=C/c1cc(OC)c(OC)c(OC)c1
GI50 (XF498): 2.92 µM (inactive)
GI50 (SNB-78): 28.2 µM (inactive)
GI50 (HOP-18): 11.6 µM (inactive)
GI50 (DLD-1): 6.03 µM (inactive)
GI50 (DMS-114): 2.92 µM (inactive)
GI50 (LXFL 529): 10.4 µM (inactive)
GI50 (DMS-273): 6.68 µM (inactive)

CCOC(=O)[C@@]12NN=N[C@@H]1[C@H]1CO[C@H](c3ccccc3)N1C2=O
GI50 (BT-549): 11.7 µM (inactive)

Nc1sccc1S(=O)(=O)c1ccsc1N
GI50 (BT-549): > 100 µM (inactive)

O=C(Nn1c(-c2ccccc2)nc2ccccc2c1=O)c1ccc([N+](=O)[O-])cc1
GI50 (BT-549): 55.7 µM (inactive)

CC(=O)Nc1ccc(S(=O)(=O)Nc2cnc3ccccc3n2)cc1
GI50 (XF498): > 100 µM (inactive)
GI50 (HOP-18): > 100 µM (inactive)
GI50 (DLD-1): > 100 µM (inactive)
GI50 (DMS-114): > 100 µM (inactive)
GI50 (LXFL 529): > 100 µM (inactive)
GI50 (DMS-273): > 100 µM (inactive)

CCN(CC)CCNc1ccc2ncn3c4c(OC)ccc(O)c4c(=O)c1c23
GI50 (BT-549): 37.3 µM (inactive)

N#Cc1c(O)n(-c2ccccc2)c(=O)c2c(N)n[nH]c12
GI50 (BT-549): > 100 µM (inactive)

CCNCC(O)COc1ccc2c(c1)[n+]([O-])nc(N)[n+]2[O-] (stereo not drawn)
GI50 (BT-549): > 100 µM (inactive)

CCCCCC(/C=C/[C@@H]1[C@H]2CC(=O)O[C@H]2C[C@H]1N1CCOCC1)OC1CCCO1 (stereo partly drawn)
GI50 (SNB-78): > 100 µM (inactive)
GI50 (HOP-18): > 100 µM (inactive)
GI50 (DLD-1): > 100 µM (inactive)
GI50 (DMS-114): > 100 µM (inactive)
GI50 (LXFL 529): > 100 µM (inactive)
GI50 (DMS-273): > 100 µM (inactive)

COc1ccc(C(OCC2OC(n3cnc4c(=O)n(Cc5ccccc5[N+](=O)[O-])nnc43)C(O)C2O)(c2ccccc2)c2ccc(OC)cc2)cc1 (stereo not drawn)
GI50 (BT-549): 16.4 µM (inactive)

C=C(C)[C@H]1CC23C(=O)C(C(=O)C(C)C)=C(O)[C@](C)(C[C@H]2C1(C)C)C3=O [LALIBINONE B]
GI50 (BT-549): 17.5 µM (inactive)

O=C(/C=C/c1ccccc1)c1ccc(NCc2nc3ccccc3[nH]2)cc1
GI50 (XF498): 7.6 µM (inactive)
GI50 (SNB-78): 4.9 µM (inactive)
GI50 (HOP-18): 2.34 µM (inactive)
GI50 (DLD-1): 4.27 µM (inactive)
GI50 (DMS-114): 2.56 µM (inactive)
GI50 (LXFL 529): 2.83 µM (inactive)
GI50 (DMS-273): 4.5 µM (inactive)

Cc1cc(C)c(N)c(CO)c1
GI50 (BT-549): > 100 µM (inactive)

CCOC(=O)c1c(SCCO)n(-c2ccccc2)c(=S)n(-c2ccccc2)c1=O
GI50 (BT-549): > 100 µM (inactive)

CC(=O)NNc1nc(C)c(C(=O)/C=C/C=C/c2ccccc2)s1
GI50 (BT-549): > 100 µM (inactive)

Oc1nc(S)nc2nc3c4cccnc4c4ccccc4c3nc12
GI50 (BT-549): > 100 µM (inactive)

C1COCCOP2(N3CC3)=NP(N3CC3)(=NP(N3CC3)(N3CC3)=N2)OCCOCCO1 (stereo not drawn)
GI50 (BT-549): > 100 µM (inactive)

C/N=C(N)/N=C(\N)Nc1cc2ccccc2c2ccccc12
GI50 (BT-549): 15.1 µM (inactive)

CCOC(=O)CCC(NC(=O)N1CCN(c2c(C)nc(C)nc2O)CC1)C(=O)OCC (stereo not drawn)
GI50 (BT-549): > 100 µM (inactive)

O=C1/C(=C/c2ccc(O)cc2)CCCC1CN1CCCCC1 (stereo not drawn)
GI50 (BT-549): 2.55 µM (inactive)

CCOC(=O)NC(=O)c1cn(CCCOC(=O)CCCCCCCCCCC(=O)OCCCn2cc(C(=O)NC(=O)OCC)c(=O)n(C)c2=O)c(=O)n(C)c1=O
GI50 (XF498): > 100 µM (inactive)
GI50 (SNB-78): > 100 µM (inactive)
GI50 (HOP-18): > 100 µM (inactive)
GI50 (DLD-1): > 100 µM (inactive)
GI50 (DMS-114): > 100 µM (inactive)
GI50 (LXFL 529): > 100 µM (inactive)
GI50 (DMS-273): > 100 µM (inactive)

CC(C)CCC[C@@H](C)C1CCC2[C@@H]3CCC4C[C@@H](NS(C)(=O)=O)CC[C@]4(C)C3CC[C@@]21C (stereo partly drawn)
GI50 (BT-549): > 100 µM (inactive)
